The results in this text go back to PubChem BioAssay (NCI).

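Tested at 5 concentrations; 48 h exposure; 96-well plates; endpoints linearly interpolated, else capped at highest concentration. TGI marks complete inhibition of growth.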 Where only a bound is given, the exact number is not on record here.

What all share (test): NCI tumour cell line growth inhibition, 48 h
The subject of assay [1] is HT29 colon.
Assay [2] has as its system SNB-75 CNS.
The subject of assay [3] is MDA-N.
The test system of assay [4] is T-47D breast.
For assay [5], the system named is SNB-19 CNS.
For assay [6], the system named is HCC-2998 colon.
Assay [7] relates to OVCAR-4 ovarian.
The test system of assay [8] is HS 578T breast.
Assay [9] deals with SN12C renal.
For assay [10], the system named is NCI-H226 lung.
The test system of assay [11] is A498 renal.
The test system of assay [12] is NCI-H23 lung.

As for `C#C[C@]1(O)CC[C@H]2[C@@H]3CCc4cc(OC(=O)c5cccc6cc7ccccc7nc56)ccc4[C@H]3CC[C@@]21C`, the TGI was greater than 100 µM in [1]; greater than 100 µM in assay [2]; 89.3 µM in assay [3]; 34 µM in assay [4]; greater than 100 µM in assay [5]; greater than 100 µM in [6]. In addition, the TGI in assay [7] is greater than 100 µM; in assay [8], greater than 100 µM; in assay [9], 54.7 µM; in [10], greater than 100 µM; in assay [11] it was greater than 100 µM; in assay [12], greater than 100 µM.
With `O=[N+]([O-])c1ccc2nc(/C=C(\O)c3ccc(F)cc3)c(/C=C(\O)c3ccc(F)cc3)nc2c1`, the TGI was greater than 100 µM in assay [1]; 37.5 µM in assay [2]; greater than 100 µM in assay [3]; greater than 100 µM in assay [4]; greater than 100 µM in [5]; greater than 100 µM in assay [6]. Further, the TGI in [7] is greater than 100 µM; in assay [8], greater than 100 µM; in [9], greater than 100 µM; in assay [10], 89 µM; in assay [11] it was 52.3 µM; in [12] it was 77.7 µM.
On to `Cc1cccc(NC(=S)N=Nc2c(O)[nH]c3ccccc23)c1`, for which the TGI in assay [1], in assay [2], in assay [3], in assay [4], in assay [5] and in assay [6] was greater than 100 µM throughout. Also, the TGI in assay [7] is greater than 100 µM; in assay [8] it was greater than 100 µM; in [9], greater than 100 µM; in assay [10], greater than 100 µM; in assay [11], 98.1 µM; in [12], greater than 100 µM.
`O[C@@H]1C[C@@H]2N[C@@](O)(C[C@@H]2O)[C@H]1O`: the TGI in assay [1], in assay [2], in assay [3], in assay [4], in assay [5] and in assay [6] was greater than 100 µM throughout. Besides, the TGI in assay [7], in [8], in assay [9], in [10], in assay [11] and in assay [12] was greater than 100 µM in each case.
For `Cn1c(-c2cccs2)cc(-c2cccs2)c1-c1ccsc1`, the TGI in assay [1], in assay [2], in [3], in assay [4], in assay [5] and in assay [6] was greater than 100 µM each time. The TGI in assay [7], in [8], in assay [9], in assay [10], in assay [11] and in assay [12] was greater than 100 µM throughout.
As to `Cc1ccc(N=C2C(=O)C3=C(OC(C)(C)CC3)c3ccccc32)cc1`, the TGI in [1] stood at 1.15 µM; in [2], 2.51 µM; in [3], 0.335 µM; in assay [4], 1.37 µM; in assay [5], 2.26 µM; in assay [6], 3.36 µM. The TGI in assay [7] is 2.18 µM; in assay [8] it was greater than 23.2 µM; in assay [9], 1.73 µM; in assay [10], greater than 20.4 µM; in [11] it was 3.81 µM; in assay [12], 6.88 µM.
For `COC(=O)c1c(C)cccc1CC1Cc2c(C)cccc2C1=O` (stereo not given), the TGI in [1], in assay [2], in assay [3], in [4], in assay [5] and in assay [6] was greater than 100 µM throughout. The TGI in assay [7] was greater than 100 µM; in assay [8], greater than 100 µM; in [9], greater than 100 µM; in [10], 95.8 µM; in [11], 73.7 µM; in assay [12], 99.5 µM.
Regarding `CNC(=S)N/N=C/c1cccc(C)n1`, the TGI in [1] was greater than 100 µM; in assay [2] it was 90.9 µM; in [3], greater than 100 µM; in assay [4], greater than 92.4 µM; in assay [5], greater than 100 µM; in assay [6], greater than 100 µM. In addition, the TGI is greater than 100 µM in assay [7]; greater than 100 µM in assay [8]; 64.1 µM in assay [9]; greater than 83.9 µM in assay [10]; greater than 71 µM in assay [11]; greater than 81.2 µM in assay [12].
For `CC1C[C@]2(C)C(=O)N(c3ccccc3)C(=N)[C@@H]2N(C)c2ccccc21` (stereo not given in full), the TGI in [1], in assay [2], in [3], in assay [4], in [5] and in [6] was greater than 100 µM in each case. In addition, the TGI in [7], in [8], in [9], in [10], in assay [11] and in assay [12] was greater than 100 µM throughout.
Take `COc1ccc(N=C(Nc2ccc(OC)cc2)C(=Nc2ccc(OC)cc2)Nc2ccc(OC)cc2)cc1`: the TGI in assay [1] is greater than 100 µM; in assay [2], 8.01 µM; in assay [3], greater than 100 µM; in [4], greater than 100 µM; in assay [5] it was greater than 100 µM; in assay [6] it was greater than 100 µM. Further, the TGI in assay [7], in assay [8], in assay [9], in assay [10], in [11] and in [12] was greater than 100 µM each time.
